US11123350B2, “Metal delivery agents and therapeutic uses of the same” (THE UNIVERSITY OF MELBOURNE, priority 2006, dated 2021)

What was measured:
A30P cells = experiment: Dopamine induced cell death, A30P cells (MTT); format: cell-based
G93A-SOD1 mice = settings: other reported pharmacological treatments (literature); cited from earlier work

SMILES | % recovery (A30P cells; Dopamine 500 μm + complex 0.01 μM) | % recovery (A30P cells; Dopamine 500 μm + complex 0.1 μM) | Increased Life Span (G93A-SOD1 mice)
CN=C([S-])N/N=C(C)/C(C)=N/NC([S-])=NC.[64Cu+2] [Complex A2, copper(II)diacetylbis(N(4)-methylthiosemicarbazone)] | 105.90% | 97.77% | 
NCC1(CC(=O)O)CCCCC1 [Gabapentin] |  |  | No effect
CC(=O)Oc1ccccc1C(=O)O [Lysine Acetyl salicylate] |  |  | No effect
O=C1NC(=O)C(c2ccc(-c3ccccc3)cc2)(N2CCN(c3ccc([N+](=O)[O-])cc3)CC2)C(=O)N1 [Ro 28-2653] |  |  | 13 days
